The record followed here is ChEMBL document CHEMBL1201862, “PubChem BioAssay data set” (2004).

Calls of active or inactive are those of the source.

Assay [1] has as its target T1, Histone-lysine N-methyltransferase NSD2 (Homo sapiens, UniProt O96028).
T1 sequence (O96028 whole entry): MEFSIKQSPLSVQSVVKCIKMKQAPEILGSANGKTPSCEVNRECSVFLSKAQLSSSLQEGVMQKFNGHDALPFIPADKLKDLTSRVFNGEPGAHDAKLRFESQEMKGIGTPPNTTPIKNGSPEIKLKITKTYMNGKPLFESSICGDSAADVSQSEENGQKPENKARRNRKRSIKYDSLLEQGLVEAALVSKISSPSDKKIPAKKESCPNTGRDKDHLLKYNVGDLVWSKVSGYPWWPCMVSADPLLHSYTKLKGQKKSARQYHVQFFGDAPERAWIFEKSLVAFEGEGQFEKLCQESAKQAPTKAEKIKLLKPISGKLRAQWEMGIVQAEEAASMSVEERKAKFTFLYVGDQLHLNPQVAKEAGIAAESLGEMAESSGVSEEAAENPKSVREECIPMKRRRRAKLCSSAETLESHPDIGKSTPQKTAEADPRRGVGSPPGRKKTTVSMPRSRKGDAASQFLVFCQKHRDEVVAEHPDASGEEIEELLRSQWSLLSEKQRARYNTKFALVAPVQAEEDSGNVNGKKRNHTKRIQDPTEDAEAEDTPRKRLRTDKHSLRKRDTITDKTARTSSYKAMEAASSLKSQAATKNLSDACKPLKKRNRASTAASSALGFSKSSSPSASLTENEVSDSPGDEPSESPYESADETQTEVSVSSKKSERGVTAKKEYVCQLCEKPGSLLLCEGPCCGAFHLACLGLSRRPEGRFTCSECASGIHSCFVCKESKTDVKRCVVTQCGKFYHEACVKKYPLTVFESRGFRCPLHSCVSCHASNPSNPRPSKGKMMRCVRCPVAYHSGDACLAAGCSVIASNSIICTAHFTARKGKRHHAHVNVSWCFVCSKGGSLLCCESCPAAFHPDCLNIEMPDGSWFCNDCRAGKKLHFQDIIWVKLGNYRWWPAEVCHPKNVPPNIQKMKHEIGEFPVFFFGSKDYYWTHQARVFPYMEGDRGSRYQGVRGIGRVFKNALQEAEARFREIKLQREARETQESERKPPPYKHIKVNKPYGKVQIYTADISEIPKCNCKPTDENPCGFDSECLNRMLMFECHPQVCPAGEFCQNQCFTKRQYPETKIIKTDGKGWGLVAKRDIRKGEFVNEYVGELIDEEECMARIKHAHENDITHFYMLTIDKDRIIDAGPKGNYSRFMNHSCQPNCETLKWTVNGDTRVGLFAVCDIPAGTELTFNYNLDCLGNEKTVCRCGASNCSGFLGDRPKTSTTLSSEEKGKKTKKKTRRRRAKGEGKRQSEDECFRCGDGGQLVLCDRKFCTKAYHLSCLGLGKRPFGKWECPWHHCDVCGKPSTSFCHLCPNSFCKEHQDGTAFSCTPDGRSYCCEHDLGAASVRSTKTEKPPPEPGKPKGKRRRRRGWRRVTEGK
The class given is biochemical.

The target of assay [2] is Rho-associated protein kinase 1 (Homo sapiens, UniProt Q13464). The class given is functional.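 Note: measured within a broad kinome-wide panel profiling many kinases.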
Assay [3] has as its target High affinity nerve growth factor receptor (Homo sapiens, UniProt P04629). It is filed as functional.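 Note: NTRK1 tested as one member of a kinome-wide profiling panel.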
In assay [4] the target is Serine/threonine-protein kinase PAK 4 (Homo sapiens, UniProt O96013). It is filed as functional.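 Note: value obtained within a kinome profiling panel in which PAK4 was one of the panel members.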
Assay [5] deals with BDNF/NT-3 growth factors receptor (Homo sapiens, UniProt Q16620). It is filed as functional.
Assay [6] addresses Mitogen-activated protein kinase 9 (Homo sapiens, UniProt P45984). The class given is functional.
Assay [7] deals with Macrophage colony-stimulating factor 1 receptor (Homo sapiens, UniProt P07333). It is filed as functional.
In assay [8] the target is Serine/threonine-protein kinase Nek2 (Homo sapiens, UniProt P51955). It is filed as functional.
A further assay concerns the target Aurora kinase A (Homo sapiens, UniProt O14965). The class given is functional.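 Note: value from the Navigating the Kinome kinase panel profiling, panel entry STK6.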
For another assay, the target named is Aurora kinase B (Homo sapiens, UniProt Q96GD4). The class given is functional.
Assay [9] concerns the target Tyrosine-protein kinase Lck (Homo sapiens, UniProt P06239). The class given is functional.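 Note: lck was assayed as one member of a kinase panel.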
The target in assay [10] is 5'-AMP-activated protein kinase catalytic subunit alpha-1 (Homo sapiens, UniProt Q13131). It is filed as functional.
Assay [11] addresses Serine/threonine-protein kinase pim-1 (Homo sapiens, UniProt P11309). It is filed as functional.
The target of assay [12] is Tyrosine-protein kinase Fyn (Homo sapiens, UniProt P06241). The class given is functional.
The target of assay [13] is Fibroblast growth factor receptor 1 (Homo sapiens, UniProt P11362). The class given is functional.
Assay [14] deals with Serine/threonine-protein kinase Chk1 (Homo sapiens, UniProt O14757). The class given is functional.
The target of assay [15] is Vascular endothelial growth factor receptor 2 (Homo sapiens, UniProt P35968). It is filed as functional.
For assay [16], the target named is Mitogen-activated protein kinase 8 (Homo sapiens, UniProt P45983). It is filed as functional.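 Note: value comes from one member of a kinome-wide kinase profiling panel.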
The next assay deals with LIM domain kinase 1 (Homo sapiens, UniProt P53667). In words: Navigating the Kinome. Panel member name: LIMK1. The class given is functional.
Assay [17] deals with Ribosomal protein S6 kinase alpha-3 (Homo sapiens, UniProt P51812). It is filed as functional.
Assay [18] deals with Hepatocyte growth factor receptor (Homo sapiens, UniProt P08581). The class given is functional.
For assay [19], the target named is Vascular endothelial growth factor receptor 1 (Homo sapiens, UniProt P17948). The class given is functional.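 Note: measured within a kinome-wide profiling panel, FLT1 as the panel member.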
Assay [20] deals with cAMP-dependent protein kinase catalytic subunit alpha (Homo sapiens, UniProt P17612). It is filed as functional.
For assay [21], the target named is Cyclin-dependent kinase 5 (Homo sapiens, UniProt Q00535). The class given is functional.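 Note: CDK5 measured as one member of a kinase profiling panel.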
Assay [22] has as its target Insulin-like growth factor 1 receptor (Homo sapiens, UniProt P08069). In words: Navigating the Kinome. Panel member name: IGF1R. It is filed as functional.
Assay [23] has as its target Tyrosine-protein kinase JAK3 (Homo sapiens, UniProt P52333). The class given is functional.
In assay [24] the target is Tyrosine-protein kinase ABL1 (Homo sapiens, UniProt P00519). It is filed as functional.
Assay [25] has as its target Glycogen synthase kinase-3 alpha (Homo sapiens, UniProt P49840). The class given is functional.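 Note: GSK3A result taken from a broad kinome-wide kinase panel.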

Chain of Mitogen-activated protein kinase 8 (P45983 whole entry, the tested form may be a part): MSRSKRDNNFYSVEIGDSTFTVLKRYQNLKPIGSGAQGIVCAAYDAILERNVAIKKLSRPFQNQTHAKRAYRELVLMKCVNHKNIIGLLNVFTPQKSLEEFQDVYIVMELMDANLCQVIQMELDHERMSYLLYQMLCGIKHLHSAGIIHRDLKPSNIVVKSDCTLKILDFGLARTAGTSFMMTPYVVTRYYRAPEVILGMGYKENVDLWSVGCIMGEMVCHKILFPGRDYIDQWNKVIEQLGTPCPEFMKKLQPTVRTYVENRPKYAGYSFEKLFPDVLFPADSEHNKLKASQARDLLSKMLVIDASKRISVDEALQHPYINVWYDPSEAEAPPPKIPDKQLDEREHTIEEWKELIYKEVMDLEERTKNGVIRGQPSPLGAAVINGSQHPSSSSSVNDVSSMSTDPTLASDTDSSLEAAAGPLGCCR
Chain of Macrophage colony-stimulating factor 1 receptor (P07333 whole entry): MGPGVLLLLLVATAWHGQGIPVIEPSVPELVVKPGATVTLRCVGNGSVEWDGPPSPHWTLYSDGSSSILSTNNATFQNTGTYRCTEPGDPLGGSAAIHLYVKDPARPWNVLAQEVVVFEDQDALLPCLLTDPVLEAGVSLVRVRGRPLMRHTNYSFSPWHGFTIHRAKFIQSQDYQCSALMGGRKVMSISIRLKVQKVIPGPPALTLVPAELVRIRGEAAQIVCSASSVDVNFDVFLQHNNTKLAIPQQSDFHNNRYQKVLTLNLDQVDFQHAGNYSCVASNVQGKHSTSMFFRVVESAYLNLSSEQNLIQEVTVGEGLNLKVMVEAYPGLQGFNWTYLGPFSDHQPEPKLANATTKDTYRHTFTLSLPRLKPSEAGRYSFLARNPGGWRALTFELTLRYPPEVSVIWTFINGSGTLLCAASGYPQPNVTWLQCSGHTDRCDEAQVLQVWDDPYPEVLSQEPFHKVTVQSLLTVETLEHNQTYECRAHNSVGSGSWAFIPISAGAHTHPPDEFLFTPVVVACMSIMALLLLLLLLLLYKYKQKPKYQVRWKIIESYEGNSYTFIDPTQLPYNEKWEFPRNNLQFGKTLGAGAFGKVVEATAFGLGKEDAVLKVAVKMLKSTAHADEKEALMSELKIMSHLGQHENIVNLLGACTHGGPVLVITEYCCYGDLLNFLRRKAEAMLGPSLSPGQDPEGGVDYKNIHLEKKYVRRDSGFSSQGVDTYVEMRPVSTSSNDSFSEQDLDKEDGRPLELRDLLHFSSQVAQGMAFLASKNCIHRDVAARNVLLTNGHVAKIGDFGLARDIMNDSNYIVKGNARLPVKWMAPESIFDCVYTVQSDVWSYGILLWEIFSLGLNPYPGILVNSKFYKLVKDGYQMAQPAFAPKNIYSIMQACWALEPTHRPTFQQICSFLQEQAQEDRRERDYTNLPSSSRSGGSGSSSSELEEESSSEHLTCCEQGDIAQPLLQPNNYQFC
Chain of Tyrosine-protein kinase JAK3 (P52333 whole entry): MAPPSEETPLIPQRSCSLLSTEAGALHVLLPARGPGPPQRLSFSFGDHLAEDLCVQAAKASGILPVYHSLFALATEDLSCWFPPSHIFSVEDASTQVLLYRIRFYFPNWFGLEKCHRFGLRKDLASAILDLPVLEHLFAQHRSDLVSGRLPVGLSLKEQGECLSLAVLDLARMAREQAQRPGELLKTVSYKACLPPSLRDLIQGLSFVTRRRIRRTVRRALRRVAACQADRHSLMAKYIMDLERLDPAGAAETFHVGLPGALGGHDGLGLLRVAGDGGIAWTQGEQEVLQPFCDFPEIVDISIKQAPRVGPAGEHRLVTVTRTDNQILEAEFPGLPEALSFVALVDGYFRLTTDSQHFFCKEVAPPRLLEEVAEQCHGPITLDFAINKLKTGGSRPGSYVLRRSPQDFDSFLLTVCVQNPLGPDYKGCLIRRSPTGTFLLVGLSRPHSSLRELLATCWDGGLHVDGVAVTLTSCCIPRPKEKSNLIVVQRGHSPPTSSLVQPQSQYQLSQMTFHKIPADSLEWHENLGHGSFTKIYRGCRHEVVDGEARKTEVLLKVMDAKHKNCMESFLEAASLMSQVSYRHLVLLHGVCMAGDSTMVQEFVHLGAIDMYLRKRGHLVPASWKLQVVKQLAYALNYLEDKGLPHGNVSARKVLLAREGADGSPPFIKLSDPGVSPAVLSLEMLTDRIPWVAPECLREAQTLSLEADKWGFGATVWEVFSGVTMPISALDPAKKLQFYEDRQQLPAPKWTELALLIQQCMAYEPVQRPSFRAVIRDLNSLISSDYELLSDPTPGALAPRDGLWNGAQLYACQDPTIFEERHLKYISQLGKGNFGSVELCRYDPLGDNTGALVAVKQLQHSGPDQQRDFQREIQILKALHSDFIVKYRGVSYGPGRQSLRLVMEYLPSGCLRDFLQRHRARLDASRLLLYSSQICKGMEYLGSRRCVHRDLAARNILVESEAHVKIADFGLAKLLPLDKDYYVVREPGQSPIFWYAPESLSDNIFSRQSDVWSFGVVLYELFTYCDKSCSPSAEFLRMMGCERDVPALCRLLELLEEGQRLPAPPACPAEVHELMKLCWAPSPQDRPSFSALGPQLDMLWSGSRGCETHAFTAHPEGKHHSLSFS
Chain of Hepatocyte growth factor receptor (P08581 whole entry): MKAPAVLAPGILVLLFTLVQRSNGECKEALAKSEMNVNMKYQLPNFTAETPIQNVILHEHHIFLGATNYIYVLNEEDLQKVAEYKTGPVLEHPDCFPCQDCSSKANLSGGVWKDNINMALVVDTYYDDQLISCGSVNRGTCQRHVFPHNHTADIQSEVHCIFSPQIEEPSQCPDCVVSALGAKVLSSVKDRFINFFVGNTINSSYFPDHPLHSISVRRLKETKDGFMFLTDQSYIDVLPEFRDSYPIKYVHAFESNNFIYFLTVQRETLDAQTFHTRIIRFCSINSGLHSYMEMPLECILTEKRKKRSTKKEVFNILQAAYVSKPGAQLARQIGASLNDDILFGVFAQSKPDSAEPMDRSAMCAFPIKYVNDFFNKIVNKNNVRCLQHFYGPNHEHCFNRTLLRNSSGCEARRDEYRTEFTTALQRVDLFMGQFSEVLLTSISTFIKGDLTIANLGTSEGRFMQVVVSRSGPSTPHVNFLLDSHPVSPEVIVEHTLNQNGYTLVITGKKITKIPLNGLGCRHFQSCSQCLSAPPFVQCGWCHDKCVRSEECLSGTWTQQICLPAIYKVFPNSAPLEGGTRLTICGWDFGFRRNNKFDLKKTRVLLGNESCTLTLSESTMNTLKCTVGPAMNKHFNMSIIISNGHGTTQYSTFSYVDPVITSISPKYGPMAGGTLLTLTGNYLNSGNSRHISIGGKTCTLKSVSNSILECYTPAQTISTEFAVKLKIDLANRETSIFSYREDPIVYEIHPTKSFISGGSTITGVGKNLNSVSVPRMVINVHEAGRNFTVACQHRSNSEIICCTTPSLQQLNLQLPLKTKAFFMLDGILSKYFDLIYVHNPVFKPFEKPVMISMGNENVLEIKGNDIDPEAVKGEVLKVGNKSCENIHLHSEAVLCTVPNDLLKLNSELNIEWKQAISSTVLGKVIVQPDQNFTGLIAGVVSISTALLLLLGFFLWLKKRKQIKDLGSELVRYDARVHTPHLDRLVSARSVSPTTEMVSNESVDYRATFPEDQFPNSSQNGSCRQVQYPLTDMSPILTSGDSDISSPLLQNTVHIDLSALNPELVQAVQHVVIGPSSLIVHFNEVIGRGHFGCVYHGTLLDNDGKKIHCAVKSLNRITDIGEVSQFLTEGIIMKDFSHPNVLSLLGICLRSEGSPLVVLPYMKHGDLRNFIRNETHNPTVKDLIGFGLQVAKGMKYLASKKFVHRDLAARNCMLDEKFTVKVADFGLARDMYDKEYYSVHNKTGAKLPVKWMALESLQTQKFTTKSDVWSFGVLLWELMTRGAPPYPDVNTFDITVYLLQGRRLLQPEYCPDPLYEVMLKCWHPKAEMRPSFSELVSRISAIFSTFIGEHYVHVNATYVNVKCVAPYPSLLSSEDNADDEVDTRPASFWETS
Chain of High affinity nerve growth factor receptor (P04629 whole entry): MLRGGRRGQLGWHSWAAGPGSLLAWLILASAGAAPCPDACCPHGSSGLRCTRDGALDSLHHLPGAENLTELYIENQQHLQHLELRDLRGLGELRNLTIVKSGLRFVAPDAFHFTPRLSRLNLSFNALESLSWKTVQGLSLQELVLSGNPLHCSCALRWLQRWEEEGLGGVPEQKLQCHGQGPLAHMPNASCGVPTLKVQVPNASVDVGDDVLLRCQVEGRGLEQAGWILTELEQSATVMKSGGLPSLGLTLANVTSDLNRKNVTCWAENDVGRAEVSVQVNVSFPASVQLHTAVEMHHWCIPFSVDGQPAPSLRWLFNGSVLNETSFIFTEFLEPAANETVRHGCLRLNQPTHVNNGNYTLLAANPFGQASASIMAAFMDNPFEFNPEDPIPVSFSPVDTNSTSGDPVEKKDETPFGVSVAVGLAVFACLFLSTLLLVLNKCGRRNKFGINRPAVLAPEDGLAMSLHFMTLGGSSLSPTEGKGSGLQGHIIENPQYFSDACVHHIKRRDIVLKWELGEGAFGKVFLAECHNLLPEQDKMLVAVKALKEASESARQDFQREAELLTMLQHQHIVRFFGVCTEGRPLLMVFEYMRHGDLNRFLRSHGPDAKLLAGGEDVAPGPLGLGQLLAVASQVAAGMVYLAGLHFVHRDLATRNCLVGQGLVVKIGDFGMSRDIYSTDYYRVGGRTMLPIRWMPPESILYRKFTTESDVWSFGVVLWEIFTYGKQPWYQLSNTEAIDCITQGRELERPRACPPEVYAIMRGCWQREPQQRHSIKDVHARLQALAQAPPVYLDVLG
Chain of Serine/threonine-protein kinase pim-1 (P11309 whole entry): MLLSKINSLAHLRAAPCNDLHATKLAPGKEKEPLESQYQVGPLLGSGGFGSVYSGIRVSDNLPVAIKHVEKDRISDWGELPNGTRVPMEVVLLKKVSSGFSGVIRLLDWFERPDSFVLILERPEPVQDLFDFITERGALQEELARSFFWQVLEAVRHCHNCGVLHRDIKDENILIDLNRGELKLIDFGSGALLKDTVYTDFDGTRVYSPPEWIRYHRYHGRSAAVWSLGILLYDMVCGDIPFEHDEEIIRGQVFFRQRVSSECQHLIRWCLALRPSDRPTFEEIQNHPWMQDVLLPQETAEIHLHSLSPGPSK

With `O=C1C=C(NCc2ccccc2)c2ccccc2C1=O`, in assay [1], the AC50 is 2.16 µM (active).

In the case of `O=C(O)c1[nH]c2ccccc2c1C(c1cc(Cl)cc([N+](=O)[O-])c1O)c1c(C(=O)O)[nH]c2ccccc12`, in [1], the concentration at half-maximal activity (AC50) was 16.6 µM (active).

On to `CCOC(=O)c1cn(-c2ccc(O)cc2C)c2cc(-c3ccncc3)ccc2c1=O`, for which the inhibitory constant (Ki) in assay [2] is 0.158 µM (active); in assay [3] it was > 2.51 µM (inactive); in [4], > 5.01 µM (inactive); in assay [5], > 5.01 µM (inactive); in assay [6], > 3.98 µM (inactive); in [7] it was > 2.51 µM (inactive). Moreover, the Ki in assay [8] was > 10 µM (inactive); at Aurora kinase A, > 6.31 µM (inactive); on Aurora kinase B, > 6.31 µM (inactive); in [9], > 2.51 µM (inactive); in [10] it was > 10 µM (inactive); in assay [11], > 10 µM (inactive). In addition, the Ki in assay [12] was > 0.794 µM (inactive); in assay [13], > 5.01 µM (inactive); in assay [14], > 7.94 µM (inactive); in assay [15], > 7.94 µM (inactive); in assay [16] it was > 3.16 µM (inactive); on LIM domain kinase 1, > 10 µM (inactive). Further, the Ki in assay [17] was > 7.94 µM (inactive); in assay [18], > 3.16 µM (inactive); in assay [19], > 0.398 µM (inactive); in [20], 1.26 µM (active); in assay [21] it was 5.01 µM (active); in [22], > 1 µM (inactive). Also, the Ki is > 1.58 µM (inactive) in [23], > 0.631 µM (inactive) in [24] and 7.94 µM (active) in [25].

Regarding `Cc1cc(=O)[nH]nc1-c1ccc(NC(=O)Nc2cc(C(F)(F)F)ccc2F)c(Cl)c1`, the Ki was > 3.98 µM (inactive) in [2]; 0.0631 µM (active) in assay [3]; > 5.01 µM (inactive) in [4]; 0.01 µM (active) in assay [5]; > 3.98 µM (inactive) in [6]; > 2.51 µM (inactive) in assay [7]. Further, the Ki in [8] is > 3.16 µM (inactive); at Aurora kinase A, > 1.58 µM (inactive); on Aurora kinase B it was > 3.98 µM (inactive); in assay [9], > 6.31 µM (inactive); in assay [10] it was > 3.16 µM (inactive); in [11], > 6.31 µM (inactive). Moreover, the Ki in assay [12] was > 6.31 µM (inactive); in assay [13], > 3.98 µM (inactive); in [14], > 3.16 µM (inactive); in [15], 0.316 µM (active); in assay [16], > 5.01 µM (inactive); at LIM domain kinase 1 it was > 3.16 µM (inactive). The Ki was > 3.98 µM (inactive) in [17]; > 2.51 µM (inactive) in [18]; > 3.98 µM (inactive) in assay [19]; > 1.26 µM (inactive) in [20]; > 3.16 µM (inactive) in assay [21]; > 2.51 µM (inactive) in assay [22]. Moreover, the values for the Ki in assay [23], in assay [24] and in assay [25] were > 5.01 µM (inactive), > 2.51 µM (inactive) and > 3.98 µM (inactive), respectively.

In general, AC50 refers to the concentration at which the activity in the assay is half-maximal. One may read the Ki as a measure of affinity in units of concentration, obtained from inhibition or displacement.
